This is an account of results in PubChem BioAssay AID493193 (Broad Institute, 2011).

Each structure is given as a SMILES string. Active and inactive are the calls of the source. The rule behind the calls is not given here.

Test system in one assay: not listed separately
Description: PubChem AID 493193. Particulars: U2OS HRE-luciferase reporter, luminescence, HIF pathway activation; at 38 µM (top of the series).
On to `Oc1ccc(CN2CCc3ccccc3C2)c2cccnc12`, for which the activation was 0.929% (inactive).

With `N#CC1(c2ccccc2)CCN(Cc2ccc(O)c3ncccc23)CC1`, the activation was 9.09% (inactive).

Regarding `Oc1ccc(CNC2CCc3ccccc32)c2cccnc12` (stereo not given), the activation is 7.38% (inactive).

Regarding `CC1CN(Cc2ccc(O)c3ncccc23)CC(C)O1` (stereo not given), the activation was 1.16% (inactive).

For `COc1ccccc1N1CCN(Cc2ccc(O)c3ncccc23)CC1`, the activation is 10.3% (inactive).

As to `Oc1ccc(CNC2Cc3ccccc3C2)c2cccnc12`, the activation is 21.4% (inactive).

Take `CC(C)(C)OC(=O)N1CCN(Cc2ccc(O)c3ncccc23)CC1`: the activation was 4.98% (inactive).

As for `OCC1CCN(Cc2ccc(O)c3ncccc23)CC1`, the activation was 8.79% (inactive).

Turning to `Oc1ccc(CN2CCC(Cc3ccccc3)CC2)c2cccnc12`, the activation was 14.5% (inactive).

The next assay deals with U2OS HRE-luciferase reporter, luminescence, HIF pathway activation. Description: PubChem AID 493193.
Settings: not given
As to `COc1ccc(CNc2nc(-c3ccccn3)nnc2-c2ccccc2)cc1`, the AC40 was 5.05 µM.

As for `Oc1ccc(CN2CCc3ccccc3C2)c2cccnc12`, the AC40 is 19.5 µM.

Consider `CC(C)(C)c1ccc(CNc2nc(-c3ccccn3)nnc2-c2ccccc2)cc1`, for which the AC40 was 2.09 µM.

Regarding `c1ccc(-c2ccc(CNc3nc(-c4ccccn4)nnc3-c3ccccc3)cc2)cc1`, the AC40 was 1.92 µM.

`c1ccc(-c2nnc(-c3ccccn3)nc2N2CCC(C3CCCCC3)C2)cc1` (stereo not given): the AC40 was 3.71 µM.

Regarding `c1ccc(CCNc2nc(-c3ccccn3)nnc2-c2ccccc2)cc1`, the AC40 is 2.98 µM.

For the compound `Clc1cccc(CNc2nc(-c3ccccn3)nnc2-c2ccccc2)c1`, the AC40 is 2.5 µM.

`Cc1ccc(CNc2nc(-c3ccccn3)nnc2-c2ccccc2)cc1C`: the AC40 was 3.09 µM.

Turning to `C[C@H](Nc1nc(-c2ccccn2)nnc1-c1ccccc1)C1CCCCC1`, the AC40 is 4.15 µM.

Consider `CC(C)(C)CCNc1nc(-c2ccccn2)nnc1-c1ccccc1`, for which the AC40 is 2.74 µM.

With `c1ccc(-c2cccc(CNc3nc(-c4ccccn4)nnc3-c3ccccc3)c2)cc1`, the AC40 was 2.15 µM.

In the case of `c1ccc(-c2nnc(-c3ccccn3)nc2NCc2cccnc2)cc1`, the AC40 was 24.3 µM.

`c1ccc(-c2nnc(-c3ccccn3)nc2NCC2CCOCC2)cc1`: the AC40 was 26.1 µM.

On to `c1ccc(-c2nnc(-c3ccccn3)nc2NCCc2ccccn2)cc1`, for which the AC40 was 15.4 µM.

On to `COc1cccc(CNc2nc(-c3ccccn3)nnc2-c2ccccc2)c1`, for which the AC40 is 4.85 µM.

As to `Oc1ccc(CN2CCC3CCCCC3C2)c2cccnc12` (stereo not given), the AC40 is 32.7 µM.

Consider `C[C@@H](Nc1nc(-c2ccccn2)nnc1-c1ccccc1)c1ccccc1`, for which the AC40 is 6.45 µM.

On to `CC(Nc1nc(-c2ccccn2)nnc1-c1ccccc1)c1ccccc1` (stereo not given), for which the AC40 is 5.33 µM.

Regarding `c1ccc(-c2nnc(-c3ccccn3)nc2N2CCC(c3ccccc3)C2)cc1` (stereo not given), the AC40 was 3.55 µM.

With `c1ccc(-c2nnc(-c3ccccn3)nc2NCc2ccccn2)cc1`, the AC40 was 26 µM.

For `C[C@@H](Nc1nc(-c2ccccn2)nnc1-c1ccccc1)C1CCCCC1`, the AC40 is 6.18 µM.
